Measurements taken from BindingDB's records for doi:10.1016/j.bmc.2009.08.051 (Kyoto Prefectural University, 2009).

Legend:
DNA polymerase beta = DNA polymerase beta (Rattus norvegicus, UniProt P06766); assay: DNA Polymerase Assay; details: pH 7.5; 37 °C
Method: (§1) For the DNA polymerase reaction, the dehydroaltenusin derivative was dissolved in dimethyl sulfoxide (DMSO) at various concentrations and sonicated for 30 s. Four microlitres of each sonicated sample were mixed with 16 uL of enzyme (final 0.05 units) in reaction buffer, and kept at 0 deg C for 10 min. These inhibitor-enzyme mixtures were added to 16 uL of each enzyme standard reaction mixture containing DNA template-primer and nucleotide, and incubated at 37 deg C for 60 min. Activity without the inhibitor was considered 100%, and the remaining activity at each concentration of the inhibitor was determined relative to this value. One unit of pol activity was defined as the amount of enzyme that catalyzed the incorporation of 1 nmol of dNTP (i.e., dTTP) into synthetic DNA template-primer in 60 min at 37 deg C under the normal reaction conditions.

DNA polymerase = DNA polymerase (Bos taurus, UniProt A0AAA9TD94); assay: DNA Polymerase Assay; details: pH 7.5; 37 °C
Method: as §1

| Compound | IC50 (DNA polymerase beta) | IC50 (DNA polymerase) |
| --- | --- | --- |
| CCCOc1cc(O)c2c(c1)C1=CC(=O)C(=O)CC1(C)OC2=O (stereo not given) [dehydroaltenusin derivative, 14] | 35 µM | 0.18 µM |
| CCCCCCOc1cc(O)c2c(c1)C1=CC(=O)C(=O)CC1(C)OC2=O (stereo not given) [dehydroaltenusin derivative, 15] | 24 µM | 0.09 µM |
| COc1cc(O)c2c(=O)oc3cc(OCc4ccccc4)c(OCc4ccccc4)cc3c2c1 [dehydroaltenusin derivative, 25] | > 200 µM | > 200 µM |
| COc1cc(O)c2c(=O)oc3cc(O)c(O)cc3c2c1 [dehydroaltenusin derivative, 26] | > 200 µM | > 200 µM |

The next lines start with results.

| IC50 (DNA polymerase beta) | Compound | IC50 (DNA polymerase) |
| --- | --- | --- |
| 11 µM | CCCCCCCCCCCCOc1cc(O)c2c(c1)C1=CC(=O)C(=O)CC1(C)OC2=O (stereo not given) [dehydroaltenusin derivative, 16] | 0.06 µM |
| 89 µM | CC12CC(=O)C(=O)C=C1c1cccc(O)c1C(=O)O2 (stereo not given) [dehydroaltenusin derivative, 20] | 0.24 µM |
| > 200 µM | COc1cc(O)c2c(c1)C1=CC(=O)C=CC1(C)OC2=O (stereo not given) [dehydroaltenusin derivative, 31] | > 200 µM |
| > 200 µM | CC12C=CC(=O)C=C1c1cccc(O)c1C(=O)O2 (stereo not given) [dehydroaltenusin derivative, 32] | > 200 µM |
| 64 µM | COc1cc(O)c2c(c1)C1=CC(=O)C(=O)CC1(C)OC2=O (stereo not given) [dehydroaltenusin] | 0.68 µM |
| 126 µM | CC12CC(=O)C(=O)C=C1c1cc(O)cc(O)c1C(=O)O2 (stereo not given) [desmethyldehydroaltenusin, 2] | 0.89 µM |
